Legend:
[1] = test system: FcγR-mediated phagocytosis of anti-D-coated RBCs by monocyte-macrophages (Mφ); experiment: Monocyte monolayer assay (MMA): inhibition of phagocytosis of anti-D-sensitized RBCs; type: cell-based, human; conditions: for inhibition of phagocytosis over the test concentration range: 10^−4 down to 10^−9 mol per L
From the text: The test concentration of immunoglobulin (anti-D or IVIg) was chosen after titration of each immunoglobulin on its own to inhibit FcγR and phagocytosis of anti-D-coated RBCs using a monocyte monolayer assay (MMA) as previously described in Rampersad et al., supra and Foo et al., supra. […] The two controls used in these experiments were chemical alone and immunoglobulin alone. For each experiment, the controls and a mixture of chemical and immunoglobulin in phosphate buffered saline (PBS) pH 7.4, were placed in separate tubes (Sarstedt) and gently rotated for 24 hours at room temperature. The solutions were then transferred to respective cellulose dialysis tubing membranes with a molecular size cut off of 12,000 daltons (Sigma-Aldrich) that had been cut to length and washed as per the manufacturer's directions by boiling in a solution containing one mmol/L ethylenediaminetetraacetic acid (EDTA) (BioShop) and 2% sodium bicarbonate (Fisher Scientific) in PBS. Dialysis was performed in large beakers of PBS for 5-7 days at 4° C. with daily changes of PBS.
Preparation of anti-D-sensitized R2R2 red blood cells (RBCs) has been previously described in Rampersad et al., supra and Foo et al., supra. Briefly, RBCs were resuspended in PBS to 5% concentration, mixed with an equal volume of human polyclonal anti-D (Immucor, Tex., Houston, USA) in PBS solution, and then incubated for 1 hour at 37° C. and 5% CO2. After which, the sensitized RBCs were washed four times in PBS and resuspended to 2.5% in PBS. […] The MMA was performed as previously described in Foo et al., supra, without modification.
A phagocytic index was calculated as described in Rampersad et al., supra; Foo et al., supra; and Branch et al., British Journal of Haematology, 1984; 56:19-29, as the unitless number of antibody-sensitized RBCs phagocytosed per 100 Mφ. Residual and phagocytosed RBCs were distinguished by relative differences in refracted light under phase-contrast microscopy. Percent inhibition was calculated as previously described^2 taking the phagocytic control index to be 100. […] Statistical significance of inhibition between treated and untreated Mφ were analysed using Student t-test and Analysis of Variance (ANOVA), and/or, General Linear Model (GLM) Analysis and Student-Newman-Keuls test. A p value of <0.05 was considered to be significant.
As previously described with minor modification, Rampersad et al., Transfusion, 2005; 45:384:93, an aliquot of R2R2 RBCs was removed from storage in Alsever's solution, Walker et al., American Association of Blood Banks, 11th ed., Bethesda, 1993, at 4° C. and washed three times in PBS without calcium or magnesium (Gibco/Invitrogen) at 2000 r.p.m. for 7 minutes (Sorvall RT 6000D centrifuge, Mandel Scientific Company Inc., Guelph, Ontario, Canada). The RBCs were resuspended in PBS to 5 percent concentration, mixed with an equal volume of human anti-D in PBS solution, and then incubated for 1 hour at 37° C. and 5 percent CO2 (Sanyo CO2 incubator), after which the sensitized RBCs were washed four times in PBS at 2000 r.p.m. for 7 minutes and resuspended to 2.5 percent in PBS.
As previously described with slight modification to improve the quality of the Mφ monolayer, Rampersad et al, supra, whole venous blood was drawn from donors into tubes (Vacutainer, ACD solution A, Becton Dickinson Vacutainer Systems, Franklin Lakes, N.J.) and mixed with an equal volume of PBS.

PBMCs = experiment: FACS annexin V-FITC/PI analysis for viable and apoptotic PBMCs; type: cell-based; conditions: for effect on PBMC viability or apoptosis: 10^−4 to 10^−9 mol per L, 1 hour; for necrotic cell counts: PBMCs
From the text: Fluorescence-activated cell sorting (FACS) analysis (flow cytometry) and a TACS annexin V-fluorescein isothiocyanate (FITC) apoptosis detection kit (R&D Systems, Minneapolis, Minn.) were used to determine if disulfide-containing compounds benzoylmethyl methyl disulfide and phenyl methyl disulfide exert effects on viability or apoptosis of PBMCs. Briefly, PBMCs were isolated from whole blood as previously outlined and treated with culture medium or chemical from 10^−4 to 10^−9 mol per L for 1 hour at 37° C. and 5 percent CO2. They were then washed three times in PBS and collected by centrifugation at 12,000 r.p.m. for 5 to 10 minutes before being incubated in culture medium for 2 hours. After washing the cells once in cold PBS, according to the manufacturer's instructions, cells were then incubated with annexin V-FITC incubation reagent for 15 minutes at room temperature to stain membrane exposed phosphatidylserine, indicating early programmed cell death or apoptosis. Cells were then stained with propidium iodide (PI), specific for nonviable cells, to identify late apoptotic cells. FACS was performed with two-color analysis on a flow cytometer (FACSCalibur E4795, Becton Dickinson, Mississauga, Ontario, Canada) calibrated with fluorescent beads (CaliBRITE, BD Biosciences, San Jose, Calif.) and computer software for data analyses (Cell Quest, BD Biosciences).

[2] = test system: immune-mediated platelet destruction (anti-platelet antibody); experiment: Model of immune-mediated platelet destruction, treatment prior to anti-platelet antibody; type: in vivo, mice; conditions: administered prior to anti-platelet antibody
Method: Referring to FIG. 5, unlike the model in FIG. 4A-4C, the treatment was administered prior to injecting the mice with the anti-platelet antibody.

[3] = test system: immune-mediated platelet destruction (anti-platelet antibody); experiment: Model of immune-mediated platelet destruction, treatment at day 2; type: in vivo, mice; conditions: single dose at day 2 instead of IVIg, anti-platelet antibody continued daily
Method: Referring now to FIGS. 4A through 4C, shown are the results using a model of immune-mediated platelet destruction wherein the anti-platelet antibody is administered on day 0 and daily thereafter. The platelet count fell abruptly after 24 hours (day 1) indicating platelets were destroyed after the antibody was recognized and bound to the platelets. […] In FIGS. 4B and 4C at day 2, instead of IVIg, two mice were administered a single dose of thimerosal or a nitrophenyl compound p-nitrophenyl methyl disulfide (G-B) (FIG. 4C).

## CC(O)c1ccccc1 (stereo not shown) [1-phenylethanol, reference compound]
[1]
  inhibition of phagocytosis over the test concentration range: None of these compounds were able to inhibit phagocytosis

## CSSCC(=O)c1ccccc1 [benzoylmethyl methyl disulfide]
PBMCs
  effect on PBMC viability or apoptosis: do not significantly affect PBMC viability or apoptosis
[1]
  inhibition of phagocytosis over the test concentration range: inhibited phagocytosis in a dose-dependent manner
[1]; 10^−4 mol per L
  inhibition of phagocytosis: 62%

## p-nitrophenylethanol
[2]
  effect on loss of platelets following anti-platelet antibody: zero platelet loss
[1]
  inhibition of phagocytosis over the test concentration range: None of these compounds were able to inhibit phagocytosis

## O=C(CS)c1ccccc1 [benzoylmethyl mercaptan]
[1]
  inhibition of phagocytosis over the test concentration range: ineffective

## CSSc1ccccc1 [phenyl methyl disulfide]
PBMCs
  effect on PBMC viability or apoptosis: do not significantly affect PBMC viability or apoptosis
PBMCs; 10^−4 mol per L
  necrotic cell counts: 2.36%
PBMCs; 10^−5 mol per L
  necrotic cell counts: 1.05%
[1]
  inhibition of phagocytosis over the test concentration range: inhibition of phagocytosis in a dose-dependent manner
[1]; 10^−4 mol per L
  inhibition of phagocytosis: 54%

## C[CH2][Hg][S]c1ccccc1C(=O)[O-].[Na+] [thimerosal]
[2]
  effect on loss of platelets following anti-platelet antibody: little effect on the subsequent loss of platelets
[3]
  platelet count after treatment: the platelet count began to rise
[1]; used alone at 10^−3M, undialyzed
  inhibition of phagocytosis: 100%
[1]; used alone at 10^−5M or 10^−3M, after dialysis
  inhibition of phagocytosis after dialysis: no longer inhibits phagocytosis after dialysis
[1]; used alone at 10^−5M, undialyzed
  inhibition of phagocytosis: 100%

## CSCc1ccc([N+](=O)[O-])cc1 [p-nitrobenzyl methyl sulfide]
[1]
  inhibition of phagocytosis over the test concentration range: did not inhibit phagocytosis

## CSSc1ccc([N+](=O)[O-])cc1 [p-nitrophenyl methyl disulfide]
[2]
  effect on loss of platelets following anti-platelet antibody: little effect on the subsequent loss of platelets
[3]
  platelet count after treatment: the platelet count began to rise
[1]
  inhibition of phagocytosis over the test concentration range: inhibited macrophage phagocytosis in vitro in a dose-dependent manner
[1]; 10^−4 mol per L
  inhibition of phagocytosis: 98.6%
[1]; 10^−7 mol per L
  inhibition of phagocytosis: 29%

## O=[N+]([O-])c1ccccc1 [nitrobenzene, reference compound]
[1]
  inhibition of phagocytosis over the test concentration range: None of these compounds were able to inhibit phagocytosis

## O=[N+]([O-])c1ccc(O)cc1 [p-nitrophenol, reference compound]
[1]
  inhibition of phagocytosis over the test concentration range: None of these compounds were able to inhibit phagocytosis

Reference: patent publication US20070184047A1, “Nitrophenyls and related compounds and thimerosal for the inhibition of immune related cell or tissue destruction” (Canadian Blood Services, priority 2005, published 2007)
